pKi: −log10 of the molar value. Calls of active or inactive are those of the source. No cut-off for these calls is given here.
Key:
Rattus norvegicus = experiment: Effect on activity impairment in rat chain pulling assay at 30 mg/kg, po; format: functional, organism-based; parameters: dose 30 mg/kg
Squirrel monkey [1] = experiment: Anxiolytic activity in squirrel monkey conditioned emotional response test at 3 mg/kg, po; format: functional, organism-based; parameters: dose 3 mg/kg; conditions: Saimiri sciureus
[2] = target: T1, GABA-A receptor; alpha-2/beta-3/gamma-2 (Homo sapiens, UniProt P18507+P28472+P47869); experiment: Displacement of [3H]-Ro15-1788 from human recombinant GABAA alpha2 in combination with beta3gamma2 expressed in L(tk-) cells; format: cell-based
T1 sequence (P18507 whole entry): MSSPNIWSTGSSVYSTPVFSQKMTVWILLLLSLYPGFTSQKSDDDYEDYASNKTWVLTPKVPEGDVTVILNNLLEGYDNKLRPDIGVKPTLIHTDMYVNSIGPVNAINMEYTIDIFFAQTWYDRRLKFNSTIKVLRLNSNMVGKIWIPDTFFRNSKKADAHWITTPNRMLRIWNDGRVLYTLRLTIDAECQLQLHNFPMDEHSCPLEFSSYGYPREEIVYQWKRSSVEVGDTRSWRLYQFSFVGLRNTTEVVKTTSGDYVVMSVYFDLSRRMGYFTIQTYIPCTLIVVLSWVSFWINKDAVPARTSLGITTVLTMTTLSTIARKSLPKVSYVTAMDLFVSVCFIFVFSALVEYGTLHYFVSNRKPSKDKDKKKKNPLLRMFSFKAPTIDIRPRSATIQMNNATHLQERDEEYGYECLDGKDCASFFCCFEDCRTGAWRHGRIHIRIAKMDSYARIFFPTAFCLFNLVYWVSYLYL
T1 sequence (P28472 whole entry): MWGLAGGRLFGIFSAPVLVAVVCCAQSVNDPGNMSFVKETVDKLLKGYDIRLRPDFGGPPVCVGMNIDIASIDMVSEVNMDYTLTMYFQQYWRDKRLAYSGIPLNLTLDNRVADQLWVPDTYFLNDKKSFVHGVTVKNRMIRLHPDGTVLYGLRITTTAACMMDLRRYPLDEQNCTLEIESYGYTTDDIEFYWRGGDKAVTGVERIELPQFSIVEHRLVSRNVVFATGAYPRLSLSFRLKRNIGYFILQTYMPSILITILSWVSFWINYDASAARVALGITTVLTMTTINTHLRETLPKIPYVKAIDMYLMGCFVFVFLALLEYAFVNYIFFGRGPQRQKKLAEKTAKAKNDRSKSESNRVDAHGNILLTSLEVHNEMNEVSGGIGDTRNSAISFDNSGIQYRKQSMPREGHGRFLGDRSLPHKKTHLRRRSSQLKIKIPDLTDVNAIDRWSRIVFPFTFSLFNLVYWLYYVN
T1 sequence (P47869 whole entry): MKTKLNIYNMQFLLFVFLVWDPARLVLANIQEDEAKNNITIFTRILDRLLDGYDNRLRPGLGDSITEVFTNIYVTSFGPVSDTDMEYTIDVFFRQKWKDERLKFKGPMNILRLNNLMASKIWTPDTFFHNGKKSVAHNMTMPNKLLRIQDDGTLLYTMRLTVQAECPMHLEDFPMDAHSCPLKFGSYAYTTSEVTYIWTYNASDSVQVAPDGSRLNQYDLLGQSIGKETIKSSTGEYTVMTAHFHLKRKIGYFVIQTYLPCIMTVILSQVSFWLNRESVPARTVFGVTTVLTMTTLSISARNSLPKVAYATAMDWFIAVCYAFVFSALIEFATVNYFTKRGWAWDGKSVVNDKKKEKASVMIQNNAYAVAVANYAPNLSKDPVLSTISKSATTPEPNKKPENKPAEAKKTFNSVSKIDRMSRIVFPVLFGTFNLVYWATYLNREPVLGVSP

[3] = Oral bioavailability in rat; format: ADME, organism-based; conditions: in vivo
Squirrel monkey [4] = experiment: Anxiolytic activity in squirrel monkey conditioned emotional response test at 0.3 mg/kg, po; format: functional, organism-based; parameters: dose 0.3 mg/kg; conditions: Saimiri sciureus
[5] = target: T2, GABA-A receptor; alpha-1/beta-3/gamma-2 (Homo sapiens, UniProt P14867+P18507+P28472); experiment: Displacement of [3H]-Ro15-1788 from human recombinant GABAA alpha1 in combination with beta-3-gamma-2 expressed in L(tk-) cells; format: cell-based
T2 sequence (P14867 whole entry): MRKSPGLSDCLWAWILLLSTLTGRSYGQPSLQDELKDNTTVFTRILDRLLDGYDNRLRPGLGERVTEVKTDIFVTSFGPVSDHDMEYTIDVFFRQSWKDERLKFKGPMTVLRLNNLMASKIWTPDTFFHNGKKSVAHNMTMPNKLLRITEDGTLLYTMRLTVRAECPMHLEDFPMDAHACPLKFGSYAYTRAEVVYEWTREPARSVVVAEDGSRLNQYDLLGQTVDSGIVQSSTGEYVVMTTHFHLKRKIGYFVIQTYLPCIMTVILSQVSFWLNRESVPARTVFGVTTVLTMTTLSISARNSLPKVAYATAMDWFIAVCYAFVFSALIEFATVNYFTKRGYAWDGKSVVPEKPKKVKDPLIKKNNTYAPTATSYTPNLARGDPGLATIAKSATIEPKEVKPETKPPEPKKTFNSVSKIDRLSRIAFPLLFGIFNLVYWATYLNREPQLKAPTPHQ
T2 sequence (P18507 whole entry): T1 sequence (P18507 whole entry)
T2 sequence (P28472 whole entry): T1 sequence (P28472 whole entry)

[6] = Plasma clearance in dog; format: ADME, organism-based, Canis lupus familiaris
[7] = target: T3, GABA-A receptor; alpha-5/beta-3/gamma-2 (Homo sapiens, UniProt P18507+P28472+P31644); experiment: Displacement of [3H]Ro-151788 from human recombinant GABAA alpha5 in combination with beta3gamma2 expressed in L(tk-) cells; format: cell-based
T3 sequence (P18507 whole entry): T1 sequence (P18507 whole entry)
T3 sequence (P28472 whole entry): T1 sequence (P28472 whole entry)
T3 sequence (P31644 whole entry): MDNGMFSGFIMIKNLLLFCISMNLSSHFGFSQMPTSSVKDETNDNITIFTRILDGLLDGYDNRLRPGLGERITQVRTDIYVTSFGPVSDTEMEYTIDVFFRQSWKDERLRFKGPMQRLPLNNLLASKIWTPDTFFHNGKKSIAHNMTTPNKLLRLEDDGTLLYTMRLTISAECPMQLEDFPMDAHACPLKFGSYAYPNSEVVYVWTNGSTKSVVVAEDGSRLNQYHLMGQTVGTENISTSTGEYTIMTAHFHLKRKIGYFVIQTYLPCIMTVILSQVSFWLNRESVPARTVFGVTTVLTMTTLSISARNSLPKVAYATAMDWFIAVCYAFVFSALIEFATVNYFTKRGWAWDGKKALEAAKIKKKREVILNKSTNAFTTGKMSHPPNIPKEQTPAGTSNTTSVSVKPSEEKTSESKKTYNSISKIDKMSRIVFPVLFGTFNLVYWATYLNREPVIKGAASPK

[8] = target: GABA-A receptor; alpha-3/beta-3/gamma-2 (Homo sapiens) (UniProt P18507+P28472+P34903); experiment: Efficacy against human recombinant GABAA alpha3 in combination with beta-3-gamma-2 expressed in L(tk-) cells by whole cell patch clamp method; format: functional, cell-based
[9] = target: GABA-A receptor; alpha-5/beta-3/gamma-2 (Homo sapiens) (UniProt P18507+P28472+P31644); experiment: Efficacy against human recombinant GABAA alpha5 in combination with beta3gamma2 expressed in L(tk-) cells by whole cell patch clamp method; format: functional, cell-based
[10] = Oral bioavailability in dog; format: ADME, organism-based, Canis lupus familiaris; conditions: in vivo
[11] = target: GABA-A receptor; alpha-1/beta-3/gamma-2 (Homo sapiens) (UniProt P14867+P18507+P28472); experiment: Efficacy against human recombinant GABAA alpha-1 in combination with beta3gamma2 expressed in L(tk-) cells by whole cell patch clamp method; format: functional, cell-based

In the case of `CC(C)(O)c1ccn2c(-c3ccc(F)c(-c4cccnc4)c3)cnc2n1`, the Activity (Rattus norvegicus) was “inactive”, the Activity (Squirrel monkey [1]) was “Active” and the pKi [2] was 8.43. For the same compound, the bioavailability [3] was 77%, the Activity (Squirrel monkey [4]) was “Active” and the pKi [5] was 9.07. For the same compound, the clearance [6] was 8.2 mL/min/kg, the pKi [7] was 9.28 and the Efficacy [8] was 57%. The Efficacy [9] was 20%, the bioavailability [10] was 48% and the Efficacy [11] was 6.2%.

With `N#Cc1cc(F)ccc1-c1cc(-c2cnc3nc(C(F)(F)F)ccn23)ccc1F` the Activity (Rattus norvegicus) was “inactive”, the Activity (Squirrel monkey [1]) was “Active” and the pKi [2] was 9.00. The bioavailability [3] was 53%, the Activity (Squirrel monkey [4]) was “Active” and the pKi [5] was 8.92. It also gave a clearance [6] of 2.9 mL/min/kg, a pKi [7] of 9.30 and an Efficacy [8] of 25%. For the same compound, the Efficacy [9] was 2%, the bioavailability [10] was 29% and the Efficacy [11] was -2%.

— ChEMBL document CHEMBL1148587, “Imidazo[1,2-a]pyrimidines as functionally selective and orally bioavailable GABA(A)alpha2/alpha3 binding site agonists for the treatment of anxiety disorders” (J Med Chem, 2006)
